According to patent US20260325655A1, “DECREASING THE INTRINSICALLY DISORDERED PROTEIN ALPHA-SYNUCLEIN’S LEVELS BY TARGETING ITS STRUCTURED MRNA WITH A RIBONUCLEASE TARGETING CHIMERA” (University of Florida Research Foundation, Incorporated, priority 2023, published 2026):

Key:
[1] = system: SNCA IRE-luciferase transcript; assay: SNCA IRE-luciferase transcript abundance by RT-qPCR; type: cell-based, human
Description: RNA extraction and reverse transcription-quantitative polymerase chain reaction (RT-qPCR). Total RNA was extracted from cells using a Quick-RNA MiniPrep Kit (Zymo Research) per the manufacturer's protocol including DNase treatment. For each sample, 200 ng of RNA was reverse transcribed into cDNA by using a qScript cDNA Synthesis Kit (QuantaBio) according to the manufacturer's instructions. To assess the relative mRNA levels, RT-qPCR was performed in triplicate using SYBR Green PCR mater mix (Applied Biosystems) with a Quant Studio 5 Real-Time PCR system. The relative levels of mRNA were calculated by using the ΔΔCt method as previously described.^8
(§1) Plasmid constructs and establishment of reporter gene overexpressing cells. Construction of pIRES-Luc-EGFP-puro plasmid and pCDH-α-syn-5′-UTR-Luc-EGFP-puro plasmid used in 5′ UTR-luciferase-based selectivity assay were previously described.^4 Briefly, In-Fusion PCR cloning system (Takara Bio, Mountain View, CA, USA) was used for all plasmid constructions per the manufacturer's instructions. To ensure sequence accuracy, all plasmids generated in this study were confirmed by sequencing.

[2] = target: SNCA IRE; assay: MST binding affinity for SNCA IRE (A bulge model RNA); settings: microscale thermophoresis; Cy5-labeled RNA
Description: (§2) Binding Affinity Measurements: Microscale Thermophoresis (MST). Binding affinity measurements were performed on a Monolith NT.115 MST system (NanoTemper Technologies) with Cy5-labeled oligonucleotides. Briefly, Cy5-labeled RNA (5 nM) was prepared in 1× Folding Buffer and folded by heating at 60° C. for 5 min and then slowly cooling to room temperature. After cooling, Tween-20 was added to a final concentration of 0.1% (v/v). Compound solutions were prepared separately in 30 μL of 1× Assay Buffer at a final concentration of 5 μM (1% (v/v) DMSO), followed by 1:1 serial dilutions in 1× Assay Buffer. RNA and compound solutions were then mixed 1:1 by volume.
(§3) Samples were incubated for 20 min at room temperature and then loaded into premium capillaries (NanoTemper Technologies, Cat #MO-K025). The following parameters were used for MST measurement: 5-20% LED power (adjusted to keep fluorescence intensity between 8000 and 18000), 80% MST power, Laser-On time=30 s, and Laser-Off time=5 s. The resulting data were analyzed by calculating the change in thermophoresis as a function of compound concentration and fitted by Equation (3) in MST analysis software (NanoTemper Technologies) to yield the dissociation constant (Kd):
(§4) where F is the concentration of fluorescently labeled RNA; unbound and bound refer to the thermophoresis signal at completely unbound and bound state of RNA, respectively; c is the concentration of the compound; f (c) is the thermophoresis signal at compound concentration of c; Kd is the dissociation constant.

[3] = system: RNase L; settings: regioisomer recruiter module of Syn-CTRL vs active recruiter (ref 48); cited from earlier work
[4] = system: fully base paired RNA; assay: MST binding to fully base paired control RNA; settings: microscale thermophoresis
Description: as §2, §3, §4

[5] = system: control luciferase reporter lacking an IRE; assay: control luciferase reporter lacking an IRE; type: cell-based, human; settings: reporter lacks IRE / SNCA-UTR sequence
Excerpt: as §1
(§5) Luciferase assay. The effect of compounds on translation of SNCA IRE-containing transcript was measured by using a luciferase reporter assay. HeLa cells (~60% confluency) were transfected with plasmids (2 μg per 60 mm dish) by using JetPrime (Polyplus Transfection) according to the manufacturer's recommended procedures. Approximately 16 h after transfection, the transfection cocktail was removed, and the cells were trypsinized and seeded to 96-well plates (8,000 cells per well). After 6 h, cells were treated as described in Cell Culture. To measure the luciferase signals, the cells were then washed with 1× DPBS, and luciferase activity in each well was measured by using the ONE-Glo Luciferase Assay System (Promega) per the manufacturer's instructions. Luminescence from firefly luciferase reaction was measured using a Biomek FLx800 plate reader.

[6] = system: SNCA-UTR-Luciferase; assay: SNCA-UTR luciferase reporter assay; type: cell-based, human; settings: highest concentration tested
Excerpt: as §1, §5

CCOC(=O)C1=C(Nc2ccccc2)S/C(=C\c2ccc(O)c(OCCOCCOCCOCCNC(=O)CCCOc3ccc(-n4c(SCC(=O)Nc5ccc6cn[nH]c6c5)nnc4-c4ccncc4)cc3)c2)C1=O [Syn-CTRL]
effect on SNCA IRE-luciferase transcript levels (in words) [1]: no effect
Kd [2]: 0.097 ± 0.003 µM
loss of activity of the RNase L-recruiting module in inducing RNase L cleavage [3]: ~ 20 -fold less active
binding towards the fully base paired RNA [4]: no saturable binding
inhibition in the control luciferase reporter [5]: Neither compound showed inhibition
decrease of luminescence signal (in words) [6]: modest decrease
